Measurements published in ChEMBL document CHEMBL5661955, “ASAP - In vitro cytotoxicity” (2024).
Where “and” joins values, the source holds several entries; their conditions need not be identical. Equal values may be shown once.

Key:
[1] = Functional CPE-based assay to measure dose dependent changes in cell viability from drug treatment in Vero E6 miRFP670 cells (cotreated with P-gp inhibitor, CP100356). Cells are treated with antiviral candidates that have been serially diluted. Cytotoxicity is reported via analysis of MTS assays in uninfected cells. The assay has been performed by KU Leuven.; assay type: toxicity, Vero C1008; conditions: chlorocebus sabaeus, Vero E6 miRFP670 cells, with CP100356 (P-gp inhibitor, concentration not stated); p-gp concentration 500 nM
[2] = Functional assay to measure dose dependent changes in cell viability from drug treatment in Vero E6 miRFP670 cells (cotreated with P-gp inhibitor, CP100356) that are infected with Dengue virus type 2 New Guinea C. […] Cytotoxicity is reported via via analysis of DAPI count using high-content imager. The assay has been performed by KU Leuven.; assay type: toxicity, cell-based, Vero C1008; conditions: chlorocebus sabaeus, with CP100356 (P-gp inhibitor, concentration not stated); p-gp concentration 500 nM
[3] = Functional metabolic assay to measure dose dependent changes in cell viability from drug treatment in Vero E6/TMPRSS2 cells (cotreated with P-gp inhibitor, Elacridar). […] Cytotoxicity is reported via measuring absorbance and analysis of MTT/MTS assays in uninfected cells. The assay has been performed by Icahn School of Medicine at Mount Sinai.; assay type: toxicity, cell-based, VeroE6/TMPRSS2; conditions: chlorocebus sabaeus, p-gp concentration 2 uM
[4] = Vero E6/TMPRSS2 cells, with Elacridar (P-gp inhibitor, concentration not stated)

SMILES	CC50 [2] [µM]	CC50 [3, 4] [µM]	CC10 ([3]; veroe6/tmprss2)	other results
Cc1ccc(-c2nc3c(C(=O)Nc4ccc5c(c4)CNC5)cc(F)cc3[nH]2)cc1	3	–	–	CC50 [1]: 1.42 µM
O=C(Nc1cnc2c(c1)CNC2)c1cc(F)cc2[nH]ncc12	> 50	–	–	CC50 [1]: > 50 µM
O=C(Nc1ccc2c(c1)CNC2)c1cccc2cn[nH]c12	> 50	–	–	CC50 [1]: 47.8 µM
O=C(Nc1cc(Cl)cc(C(=O)Nc2cccc([C@H]3CCNC3)c2)c1)OCc1ccccc1	–	20.1	2.776 µM	–
Clc1cccc([C@H](C#Cc2ccccc2)Nc2cccc(-c3nn[nH]n3)c2)c1	6.84	–	–	–
O=C(Nc1cc(Cl)cc([C@H](C#CCO)Nc2ccc(-c3nn[nH]n3)cc2)c1)OCc1ccccc1	> 50	–	–	–
O=C(O)CCc1ccc(NC(=O)c2cc(Cl)cc(NC(=O)OCc3ccccc3)c2)cc1	–	> 50	> 50 µM	–
NCc1ccc(F)c(NC(=O)c2cc(Cl)cc(NC(=O)OCc3ccccc3)c2)c1	–	> 50	> 50 µM	–
O=C(O)Cn1ncc2cc(-c3cc(Cl)cc(NC(=O)OCc4ccccc4)c3)ccc21	> 50	–	–	–
C=CC[C@H](Nc1cc(Cl)cc(NC(=O)OCc2ccccc2)c1)c1cccc(-c2nn[nH]n2)c1	–	> 50	0.105 µM	–
NCc1cccc(NC(=O)C[C@H](NC(=O)OCc2ccccc2)c2ccc(OCc3ccccc3)c(Br)c2)c1	–	38.4	0.148 µM	–
NCc1cccc(NC(=O)[C@@H](NC(=O)OCc2ccccc2)c2ccc(Br)c(Cl)c2)c1	–	8.15	0.556 µM	–
C=CC[C@H](Nc1cc(Cl)cc(NC(=O)OCc2ccccc2)c1)c1cccc(CN)c1	3.34	–	–	–
O=C(Nc1cc(Cl)cc(C(=O)Nc2cc(-c3nnn[nH]3)ccc2F)c1)OCc1ccccc1	–	> 50	> 50 µM	–
N#Cc1cc(Cl)cc([C@H](C#N)Nc2ccc3c(c2)CNC3)c1	–	> 50	> 50 µM	–
N#Cc1cc(Cl)cc(C(=O)Nc2ccc3c(c2)CNC3)c1	–	> 50	> 50 µM	–
N[C@H]1CC[C@H](c2ccc(NC(=O)c3cc(Cl)cc(NC(=O)OCc4ccccc4)c3)cc2)C1	2.84	–	–	–
CNC(=O)[C@H](Nc1cc(Cl)cc(NC(=O)OCc2ccccc2)c1)c1cccc(-c2nn[nH]n2)c1	–	> 50	> 50 µM	–
O=C(Nc1ccc2c(c1)CNC2)c1cc(Cl)ccc1SC1CCCC1	–	> 50	41.64 µM	–
NCc1cccc(NC(=O)[C@H]2[C@H]3CCCCC[C@H]3[C@H]2NC(=O)OCc2ccccc2)c1	–	10.3	0.166 µM	–
CC(=Cc1cccc(CN)c1)c1cc(Cl)cc(NC(=O)OCc2ccccc2)c1	3.26	–	–	–
C=CC[C@H](Nc1cccc(-c2nn[nH]n2)c1)c1cc(Cl)cc2[nH]ncc12	–	> 5	> 5 µM	–
N#C[C@H](Nc1cc(Cl)cc(NC(=O)OCc2ccccc2)c1)c1ccc(-c2nn[nH]n2)cc1	13	–	–	–
O=C(Nc1cc(Cl)cc(C(=O)Nc2cc(Br)cc(-c3nnn[nH]3)c2)c1)OCc1ccccc1	–	> 50	> 50 µM	–
CCOC(=O)Nc1cc(Cl)cc(C(=O)Nc2cccc(CN)c2)c1	–	> 50	> 50 µM	–
CNC(=O)c1cc(Cl)c(F)cc1NS(=O)(=O)c1ccc(Oc2ccccc2Cl)cc1	5.65	–	–	–

SMILES	CC50 [2] [µM]	CC50 [3, 4] [µM]	CC10 ([3]; veroe6/tmprss2)	other results
CN(C)C(=O)c1cc(CN)cc([C@@H]2C[C@H]2c2cc(Cl)cc(NC(=O)OCc3ccccc3)c2)c1	4.09	–	–	–
CCCCCC(=O)N[C@H](C(=O)NCc1ccc(N)nc1)c1ccc(OCc2ccccc2)cc1	3.63	–	–	–
N#C[C@H](Nc1cccc(-c2nn[nH]n2)c1)c1cc(Cl)cc(NC(=O)OCc2ccccc2)c1	–	> 50	> 50 µM	–
C=CC[C@H](Nc1cccc(-c2nn[nH]n2)c1)c1cc(Cl)cc(NC(=O)OCc2ccccc2)c1	6.9	–	–	–
O=C(Nc1ccc2c(c1)CNC2)c1cc(Cl)cc2[nH]c(-c3cccc(F)c3)nc12	–	–	–	CC50 [1]: > 50 µM
O=C(Nc1cc(Cl)cc(C(=O)Nc2ccc([C@@H]3C[C@H]3C(=O)O)cc2)c1)OCc1ccccc1	21.1	–	–	–
Cc1ccc(S(=O)(=O)CNC(=O)[C@H](Nc2ccc3c(c2)CNC3)c2cc(Cl)cc3[nH]ncc23)cc1	–	> 50	> 50 µM	–
CC[C@H](Cc1nnn[nH]1)c1ccc(NC(=O)c2cc(Cl)cc(C3CC3)c2)cc1	–	> 50	> 50 µM	–
C[C@@]1(O)[C@H](O)[C@@H](CO)O[C@H]1n1ccc(N)nc1=O	> 200	–	–	–
NCc1cccc(NC(=O)c2cc(Cl)cc(NC(=O)OCc3ccccc3)c2)c1	–	–	–	CC50 ([3]; veroe6/tmprss2): > 10 µM and 18.5 µM and 30.7 µM
NCCCCc1ccc(NC(=O)c2cc(Cl)cc(NC(=O)OCc3ccccc3)c2)cc1	6.49	> 50	> 50 µM	–
CC(=O)Nc1cc(Cl)cc(C(=O)Nc2cccc(CN)c2)c1	–	> 50	> 50 µM	–
C[C@@H](N)c1cccc(NC(=O)[C@H]2[C@H]3CCCCC[C@H]3[C@H]2NC(=O)OCc2ccccc2)c1	–	> 50	0.044 µM	–
O=C(Nc1ccc2c(c1)CNC2)c1cc(Br)cc2[nH]c(C3CCOCC3)nc12	–	27.8	3.442 µM	–
O=S(=O)(Nc1cccc(-c2nnn[nH]2)c1)c1cc(Cl)cc(-c2ccccc2)c1	–	> 50	> 50 µM	–
O=C(O)c1cc(Cl)ccc1S(=O)(=O)NC1CCN(c2nc(C3CC3)cc(C(F)(F)F)n2)CC1	–	–	–	CC50 ([3]; veroe6/tmprss2): > 10 µM and 49.7 µM
C[C@H]1NCc2cc(NC(=O)c3cc(F)cc4[nH]ncc34)ccc21	–	–	–	CC50 [1]: > 50 µM
O=C(Nc1cnc2c(c1)CNCC2)c1cc(Cl)cc2[nH]ncc12	–	> 50	> 50 µM	–
NCc1cccc([C@@H]2C[C@H]2c2cc(Cl)cc(NC(=O)OCc3ccccc3)c2)c1	–	> 50	> 50 µM	–
NCc1cccc(NC(=O)c2cc(Cl)cc3c2CCC3)c1	–	–	–	CC50 ([3]; veroe6/tmprss2): > 50 µM
NCc1cccc(NC(=O)c2cc(Cl)cc(CN)c2)c1	–	–	–	CC50 ([3]; veroe6/tmprss2): > 50 µM
Cc1ccc(-c2nnn[nH]2)cc1NC(=O)c1cc(Cl)cc(NC(=O)OCc2ccccc2)c1	–	> 50	> 50 µM	–
CC[C@H](Cc1nn[nH]n1)c1ccc(N[C@H](C(=O)NC)c2cc(Cl)cc(NC(=O)OCc3ccccc3)c2)cc1	–	> 50	> 50 µM	–
NCc1cccc(CNC(=O)[C@@H](NC(=O)OCc2ccccc2)c2ccc(OCc3ccccc3)cc2)c1	1.9	–	–	–
O=C(Nc1cc(Cl)cc(CNc2cccc(-c3nn[nH]n3)c2)c1)OCc1ccccc1	> 50	–	–	–
c1ccc(-c2csc(C3CCN(Cc4c[nH]c5ccccc45)CC3)n2)cc1	> 10	–	0.299 µM and 0.162 µM	CC50 ([3]; veroe6/tmprss2): > 10 µM and 20.1 µM

SMILES	CC50 [2] [µM]	CC50 [3, 4] [µM]	CC10 ([3]; veroe6/tmprss2)	other results
O=C(Nc1cc(Cl)cc(S(=O)(=O)Nc2cccc(-c3nn[nH]n3)c2)c1)OCc1ccccc1	–	> 50	> 50 µM	–
CCOc1cccc(-c2ccc(S(=O)(=O)Nc3cc4c(cc3C(=O)O)CCC4)cc2)c1	–	> 50	5.671 µM	–
O=C(Nc1cc(Cl)cc(N[C@H](C#CCO)c2ccc(-c3nn[nH]n3)cc2)c1)OCc1ccccc1	–	> 50	> 50 µM	–
O=C(NCC1CCOCC1)[C@H](Nc1ccc2c(c1)CNC2)c1cc(Cl)cc2[nH]ncc12	–	> 50	> 50 µM	–
NCc1ccc([C@H]2C[C@@H]2c2cc(Cl)cc(NC(=O)OCc3ccccc3)c2)cc1	3.51	–	–	–
NCc1ccc2c(c1)[C@H]1OCCC[C@H]1[C@H](c1cc(Cl)cc(NC(=O)OCc3ccccc3)c1)N2	5.8	–	–	–
CNC(=O)[C@H](Nc1cc(Cl)cc(NC(=O)OCc2ccccc2)c1)c1cccc(CN)c1	24.2	–	–	–
CCOC(=O)[C@H]1[C@H](c2cc(Cl)cc(NC(=O)OCc3ccccc3)c2)[C@H]1c1cccc(-c2nnn[nH]2)c1	–	> 50	> 50 µM	–
CCc1cc(Cl)cc(C(=O)Nc2ccc3c(c2)CNC3)c1	–	> 50	10.908 µM	–
O=C(Nc1cc(Cl)cc(C(=O)Nc2ccc3c(c2)CCNC3)c1)OCc1ccccc1	2.91	–	–	–
Cc1ccc2cc(Cl)cc(C(=O)Nc3ccc4c(c3)CNC4)c2n1	–	31.3	2.835 µM	–
CC[C@H](Cc1nnn[nH]1)c1ccc(NC(=O)c2cc(Cl)cc(-n3cccc3)c2)cc1	–	> 50	> 50 µM	–
COc1ccc(CCNc2nc(N3CCc4cc(OC)c(OC)cc4C3)c3cc(OC)c(OC)cc3n2)cc1OC	–	–	< 0.005 µM	–
O=C(Nc1ccc2c(c1)CN[C@H]2C1CC1)c1cc(F)cc2[nH]ncc12	–	–	–	CC50 [1]: > 50 µM
NCc1cccc(NC(=O)c2cc(Cl)cc(N3CCCC3=O)c2)c1	–	–	–	CC50 ([3]; veroe6/tmprss2): > 50 µM
CNC(=O)[C@H](Nc1cccc(CN)c1)c1cc(Cl)cc(NC(=O)OCc2ccccc2)c1	23.7	–	–	–
CCOc1cccc(-c2ccc(S(=O)(=O)Nc3ccc(Cl)cc3C(=O)O)cc2)c1	–	–	–	CC50 ([3]; veroe6/tmprss2): > 50 µM
NCCCc1ccnc(NC(=O)c2cc(Cl)cc(NC(=O)OCc3ccccc3)c2)c1	–	16.2	2.116 µM	–
O=C(Nc1cc(Cl)cc([C@H]2C[C@@H]2c2cccc(-c3nnn[nH]3)c2)c1)OCc1ccccc1	16.3	–	–	–
CCCC(=O)Nc1cc(Cl)cc(C(=O)Nc2cccc(CN)c2)c1	–	> 50	> 50 µM	–
CC[C@H](Cc1nnn[nH]1)c1ccc(NC(=O)[C@H]2[C@H]3CCCCC[C@H]3[C@H]2NC(=O)OCc2ccccc2)cc1	–	> 50	> 50 µM	–
c1ccc2c(CN3CCC(c4cscn4)CC3)c[nH]c2c1	–	–	–	CC50 ([3]; veroe6/tmprss2): > 50 µM
O=C(Nc1ccc2c(c1)CNC2)c1cc(Cl)cc2[nH]c(-c3ccccc3)nc12	–	–	–	CC50 [1]: 2.09 µM
CC1(C)NCc2cc(NC(=O)c3cc(F)cc4[nH]ncc34)ccc21	–	–	–	CC50 [1]: > 50 µM
O=C(Nc1cc(Cl)cc(C(=O)Nc2ccc3c(c2)CNCCO3)c1)OCc1ccccc1	–	> 50	< 0.023 µM	–
CC(=Cc1cc(Cl)cc(NC(=O)OCc2ccccc2)c1)c1cccc(CN)c1	0.906	–	–	–
